# Substitutions are numbered along the chain they refer to. pKi: −log10 of the molar value.
# Assays:
# [1] = target: T1, 5-HT1AR F112^3.28W (Homo sapiens, UniProt P08908, F112W); assay: GloSensor cAMP accumulation in HEK293AΔGi/o; assay type: cell-based; conditions: read-out: Emax [% ± SEM], cAMP accumulation
# T1 sequence (P08908 1-422 F112W): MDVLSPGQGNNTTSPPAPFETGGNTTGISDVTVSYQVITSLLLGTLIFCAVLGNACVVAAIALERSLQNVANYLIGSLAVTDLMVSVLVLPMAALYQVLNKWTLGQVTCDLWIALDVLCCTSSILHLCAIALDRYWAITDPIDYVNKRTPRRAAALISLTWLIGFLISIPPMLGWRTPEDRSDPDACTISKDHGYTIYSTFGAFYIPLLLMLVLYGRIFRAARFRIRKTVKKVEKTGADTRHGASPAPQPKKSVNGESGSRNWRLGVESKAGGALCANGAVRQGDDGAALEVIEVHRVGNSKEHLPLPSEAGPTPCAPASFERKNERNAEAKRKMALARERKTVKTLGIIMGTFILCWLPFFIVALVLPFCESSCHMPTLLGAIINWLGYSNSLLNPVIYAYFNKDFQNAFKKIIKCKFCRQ
# [2] = target: α2CR (Homo sapiens, UniProt P18825); assay: BRET Gαi1 activation
# [3] = target: T2, 5-HT1AR F112^3.28W + M92^2.60F (Homo sapiens, UniProt P08908, F112W/M92F); assay: GloSensor cAMP accumulation in HEK293AΔGi/o; assay type: cell-based; conditions: read-out: Emax [% ± SEM], cAMP accumulation
# T2 sequence (P08908 1-422 M92F/F112W): T1 sequence (P08908 1-422 F112W) with M92F
# [4] = target: T2, 5-HT1AR F112^3.28W + M92^2.60F; assay: Radioligand competition, displacement of [3H]WAY100635; assay type: binding; conditions: 5-HT1AR F112W + M92F; HEK 293T membranes; read-out: Ki [nM ± SEM]
# [5] = target: α2BR (Homo sapiens, UniProt P18089); assay: BRET Gαi1 activation
# [6] = target: orexin OX1 (Homo sapiens, UniProt O43613); assay: Radioligand displacement, [3H]SB674042
# [7] = target: adrenergic α2A (Homo sapiens, UniProt P08913); assay: Radioligand displacement, [3H]RX821002
# [8] = target: orexin OX2 (Homo sapiens, UniProt O43614); assay: Radioligand displacement, [3H]EMPA
# Sequence of orexin OX2 (O43614 whole entry): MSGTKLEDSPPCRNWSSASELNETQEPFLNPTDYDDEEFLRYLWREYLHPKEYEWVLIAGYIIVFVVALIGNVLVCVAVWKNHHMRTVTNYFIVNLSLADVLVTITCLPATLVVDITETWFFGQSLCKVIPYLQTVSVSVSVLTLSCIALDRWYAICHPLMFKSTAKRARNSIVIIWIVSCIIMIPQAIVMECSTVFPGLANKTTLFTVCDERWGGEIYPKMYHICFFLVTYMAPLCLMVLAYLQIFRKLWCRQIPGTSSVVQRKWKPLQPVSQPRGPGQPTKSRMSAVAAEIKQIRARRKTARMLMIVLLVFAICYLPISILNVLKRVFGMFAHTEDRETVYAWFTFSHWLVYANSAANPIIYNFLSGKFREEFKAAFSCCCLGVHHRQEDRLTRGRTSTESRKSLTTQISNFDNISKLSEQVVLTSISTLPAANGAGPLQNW
# Sequence of adrenergic α2A (P08913 whole entry): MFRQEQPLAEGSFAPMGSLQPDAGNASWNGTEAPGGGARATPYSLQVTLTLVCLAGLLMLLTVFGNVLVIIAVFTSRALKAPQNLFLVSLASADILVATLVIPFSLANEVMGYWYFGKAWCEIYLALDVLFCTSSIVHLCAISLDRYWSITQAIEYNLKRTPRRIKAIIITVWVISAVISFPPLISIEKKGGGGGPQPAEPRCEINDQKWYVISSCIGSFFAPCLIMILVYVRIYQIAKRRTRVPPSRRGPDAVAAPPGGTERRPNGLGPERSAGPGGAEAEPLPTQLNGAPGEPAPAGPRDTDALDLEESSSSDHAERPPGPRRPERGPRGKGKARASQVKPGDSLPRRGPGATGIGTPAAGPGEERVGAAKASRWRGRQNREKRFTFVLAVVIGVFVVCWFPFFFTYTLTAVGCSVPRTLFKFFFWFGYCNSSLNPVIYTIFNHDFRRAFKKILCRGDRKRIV
# Sequence of orexin OX1 (O43613 whole entry): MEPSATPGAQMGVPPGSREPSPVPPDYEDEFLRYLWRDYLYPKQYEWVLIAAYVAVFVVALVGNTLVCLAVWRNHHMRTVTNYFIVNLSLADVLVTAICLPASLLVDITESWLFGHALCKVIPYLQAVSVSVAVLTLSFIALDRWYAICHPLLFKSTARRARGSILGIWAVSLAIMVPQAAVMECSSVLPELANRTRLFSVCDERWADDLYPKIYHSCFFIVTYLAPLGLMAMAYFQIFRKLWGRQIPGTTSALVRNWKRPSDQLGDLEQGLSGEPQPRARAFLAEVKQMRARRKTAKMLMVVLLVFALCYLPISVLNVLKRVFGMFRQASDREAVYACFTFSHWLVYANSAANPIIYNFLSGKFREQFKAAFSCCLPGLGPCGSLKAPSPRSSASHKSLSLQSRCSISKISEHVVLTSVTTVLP
# Sequence of α2CR (P18825 whole entry): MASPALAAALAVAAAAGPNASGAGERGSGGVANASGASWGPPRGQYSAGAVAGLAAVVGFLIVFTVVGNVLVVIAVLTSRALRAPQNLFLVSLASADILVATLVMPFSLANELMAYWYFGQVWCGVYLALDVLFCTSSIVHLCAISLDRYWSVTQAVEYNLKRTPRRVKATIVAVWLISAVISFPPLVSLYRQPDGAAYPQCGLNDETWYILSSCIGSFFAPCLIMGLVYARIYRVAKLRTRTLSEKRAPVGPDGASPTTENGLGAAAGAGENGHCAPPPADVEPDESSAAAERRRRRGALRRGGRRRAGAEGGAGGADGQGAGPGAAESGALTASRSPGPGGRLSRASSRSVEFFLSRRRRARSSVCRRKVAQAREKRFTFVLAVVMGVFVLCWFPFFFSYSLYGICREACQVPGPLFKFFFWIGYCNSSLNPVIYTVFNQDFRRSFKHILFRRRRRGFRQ
# Sequence of α2BR (P18089 whole entry): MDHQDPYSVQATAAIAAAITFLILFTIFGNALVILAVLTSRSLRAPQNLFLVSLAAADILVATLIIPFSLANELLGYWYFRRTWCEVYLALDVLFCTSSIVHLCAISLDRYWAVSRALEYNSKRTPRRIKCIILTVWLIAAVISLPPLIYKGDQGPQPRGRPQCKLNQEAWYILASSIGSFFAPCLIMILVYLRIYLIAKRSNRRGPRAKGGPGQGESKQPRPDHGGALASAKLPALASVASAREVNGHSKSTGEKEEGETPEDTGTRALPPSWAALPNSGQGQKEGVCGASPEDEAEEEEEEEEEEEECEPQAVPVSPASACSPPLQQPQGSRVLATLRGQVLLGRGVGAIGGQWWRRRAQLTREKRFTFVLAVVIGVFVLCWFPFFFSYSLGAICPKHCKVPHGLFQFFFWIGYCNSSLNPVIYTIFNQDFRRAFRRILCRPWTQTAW
compound,measurement,setting,value
COc1ccccc1OCCNCCCOc1ccc2c(c1)NC(=O)CO2 [ST171],Emax,[1],< 5%
same,intrinsic activity,[2],devoid of intrinsic activity
same,Emax,[3],< 5%
same,Ki,[4],0.044 nM
same,intrinsic activity,[5],devoid of intrinsic activity
same,Ki,[6]; Ki [nM ± SD],> 50000 nM
same,pKi,[6]; pKi,< 4.30
same,Ki,[7]; Ki [nM ± SD],260 nM
same,pKi,[7]; pKi,6.69
same,Ki,[8]; Ki [nM ± SD],> 50000 nM
same,pKi,[8]; pKi,< 4.30

# — article PMC12175894 (Science Advances, 2025)
